Structures are written as SMILES. “Also recorded” adds a separate entry of the source.

In data set [1] the test system is frataxin deficient fibroblasts (Friedreich's ataxia patient fibroblast cell line GM03665). Briefly: Frataxin deficient fibroblast viability assay (the BSO Assay). Conditions: for EC50: Homo sapiens, Fibroblast, FA patient fibroblasts pretreated with drug 250 nM down to 6.125 nM the day before BSO 10 mM, MTT 48 hrs later; for BSO assay activity compared with vatiquinone (in words) / protection against ferroptosis (in words): summary of Table 1 BSO assay data. The data set is classed as cell-based, human. As for the experimental part:
Example 6: Frataxin Deficient Fibroblast Viability Assay (the “BSO Assay”)
This Example was used to evaluate the various new compositions for their potential efficacy in the treatment of Friedreich's Ataxia (FA or FRDA) based on their potential to inhibit ferroptosis based on this BSO assay—performed substantially as described in the above cited Reference (Matthias et al.).
The stock solutions of the test articles (and control compounds) were prepared in dimethyl sulfoxide (DMSO at 10 mM). Working stock solutions (2 times concentrated) were prepared on the day of the experiment in respective cell culture medium to be used for assay (detailed medium description below). A listing of compounds used as test articles in this Example 12 are found in Table 1, below.
A patient derived frataxin deficient fibroblast cell line was obtained from Coriell Institute. More specifically, the following cell lines/DNA samples were obtained from the NIGMS Human Genetic Cell Repository at the Coriell Institute for Medical Research: GM03665. To evaluate importance of various growth conditions on cell susceptibility to BSO toxicity cells were grown on:
MEM (Sigma-Aldrich) 15% Fetal Bovine Serum (FBS) without growth factors;
MEM (Sigma-Aldrich) 15% FBS with growth factors (Catalogue number 100-18B, Recombinant Human FGF-basic (154 a.a.) and catalogue number AF-100-15, Animal-Free Recombinant Human EGF from Peprotech);
MEM199/MEM EBS (Bioconcept Ltd.) 10% FBS, insulin 10 μg/ml, L-glutamine 2 mM with growth factors (Catalogue number 100-18B, Recombinant Human FGF-basic (154 a.a.) and catalogue number AF-100-15, Animal-Free Recombinant Human EGF from Peprotech).
To conduct an experiment, fibroblast cells (from all growth conditions) were seeded (100 μL (cells 3×10∧3/well) on 96-well plates in MEM199/MEM EBS medium 10% FBS, insulin 10 μg/mL, L-glutamine 2 mM with growth factors and allowed to grow on plate for 24 hrs. After 24 hrs., media was removed and then test compounds of interest were added (100 μL, 2 times concentrated stock) to 96-well plates (end DMSO concentration not exceeding 0.5%) and incubated for 24 hours. Then L-buthionine-sulfoximine (BSO, from Acros Organics, Cat. No. 235520010) was added (100 μL, 2 times concentrated stock) at end concentrations ranging from 1 to 10 mM. Both test compounds and BSO were dissolved in MEM199/MEM EBS medium 10% FBS, insulin 10 μg/mL, L-glutamine 2 mM with growth factors. Cell viability was monitored and either after 24- or 48-hours cell viability was assayed by MTT (Thiazolyl blue tetrazolium bromide) assay. For the MTT assay, media was removed and 100 μL of MTT 1 mg/mL was added, incubated for 2 hours at +37° C., then medium was removed and 100 μL of isopropanol added to dissolve sediment. Absorption was measured at 570 (OD570) and 650 (OD650) nm wavelengths. Control cells (vehicle instead of BSO and compound) and vehicle control (with BSO, but vehicle instead of test compound) were treated in the same manner as cells with BSO and compound. All cell media contained penicillin and streptomycin 100 U/mL each.
Absorption readouts were processed as follows: ValueΔ=ValueOD570-ValueOD650 and the obtained values were used to calculate cell viability as % of control cell (i.e., no BSO, no compound, just vehicle) viability.
Except as otherwise indicated in Table 1, all samples were run in at least 3 replicates for test compounds and at least 8 replicates for controls (i.e., both control (no BSO, no compound) and vehicle control (i.e., with BSO, no compound). Exact N per data points are indicated in the figures/table legends. Results for the compounds (test articles and controls) tested are listed in Table 1, below.
This is a cell-based assay measuring cytotoxicity which results from oxidative stress subsequent to depletion of endogenous glutathione defense mechanisms. […]

Data set [2] is described as follows: Concentration of therapeutic agents in blood and brain tissue in rat following oral administration. The data set is classed as in vivo. The note with it: male SD rats; for Brain level: perfused brain homogenate; for Cmax: male, Sprague-Dawley, rat, plasma, po, 10 mg/kg; for drop in plasma concentration relative to the next larger compound pair: 2-1/3-1 vs vatiquinone/1-1, 4-1/5-1 vs 2-1/3-1; for brain level (in words): summary of Table 1 brain concentration data. As for the experimental part:
Example 7: Study of Concentration of Therapeutic Agents in Blood and Brain Tissue in Rat Following Oral Administration
This study was intended to examine and compare the concentration of the various therapeutic agents tested in blood and brain tissue shortly after oral administration to rats.
The experimental procedures were carried out in accordance with the guidelines of the European Community and local laws and policies and were approved by the Latvian Animal Protection Ethical Committee, Food and Veterinary Service, Riga, Latvia. Animals were housed in the animal facilities at the Latvian Institute of Organic Synthesis (LIOS) under standard conditions (21-23° C., 12 h light-dark cycle) with unlimited access to food (R70 diet, Lantmännen Lantbruk, Sweden) and water. Male Sprague Dawley (SD) rats (8 weeks old at the time of purchase, from Envigo) were used for the study and were allowed an acclimatization period of at least 1 week prior to treatment. No drugs or vaccines were administered before the start of the study. Only healthy animals were included in the study. Animals were weighed on the day of treatment (before treatment) to calculate the required volume of working solution of compound (i.e. therapeutic agent) administered. No drugs except the therapeutic agent to be tested were administered during the study. Rats were dosed orally with compound (1 times weight μL, solution 10 mg/mL, dissolved in sesame oil).
Animals were anaesthetized using 5% isoflurane inhalation at selected time points after administration of test compounds. Then chest was opened and blood drawn from the heart and collected in EDTA coated microtubes (Sarstedt). Transcardial perfusion was performed afterwards by perfusing ice-cold PBS solution for 4 minutes, ˜55 mL total perfusion volume. Afterwards brain tissues were collected in microtubes and frozen in liquid nitrogen. Blood was centrifuged for 3 min at 10000 g within 15 minutes of collection. Plasma was collected in low-binding microtubes (Nerbe plus) by adding 95 μL of plasma to 5 μL of 2% HCOOH to obtain 100 μL of plasma solution with HCOOH end concentration 0.1%. Plasma was frozen in liquid nitrogen and stored at −80° C.
Tissue samples were weighed in 2 mL micro centrifuge tubes. Microtubes were kept on ice throughout the procedure. Tissue homogenates were prepared using acidified (0.1% HCOOH) water by adding 4 times volume to weighed samples. Two metal beads were placed in each micro centrifuge tube and brain tissues homogenized using Bead Ruptor (Omni International, USA) for 60 s using speed 4 ms per cycle. Homogenates (96 uL) were transferred to 1.5 mL low binding micro centrifuge tubes. Homogenates were frozen and kept at −80° C. until sample extraction for LC/MS/MS analysis.
Extraction of spiked SD Rat EDTA plasma or brain homogenate standards was performed by adding to 100 μL of spiked rat plasma or brain homogenate standard sample of 400 μL of deproteinization solution, 1% formic acid in MeOH with IS (reserpine 15 ng/mL). Samples were vortex mixed for 10 sec at 2800 rpm and incubated on orbital shaker for 10 min at 200 rpm. Then vortex mixed for 10 sec at 2800 rpm and centrifugated at 12000 rpm for 30 min in 5° C. Supernatants were transferred to LC vials and used for analysis. Extraction of rat EDTA plasma or brain homogenate analytical samples was performed by adding to 96 μL of rat plasma or brain homogenate analytical sample of 4 μL of DMSO, vortex mix the samples. Then 400 μL of deproteinization solution, 1% formic acid in MeOH with IS (reserpine 15 ng/mL) were added. Samples were vortex mixed for 10 sec at 2800 rpm and incubated on orbital shaker for 10 min at 200 rpm. Then vortex mixed for 10 sec at 2800 rpm and centrifugated at 12000 rpm for 30 min in 5° C. Supernatants were transferred to LC vials and used for analysis.
Data collected for each of the various therapeutic agents tested (i.e. vatiquinone and Compounds 1-1, 2-1, 3-1, 4-1 and 5-1 are summarized in Table 1, below.

Setting [3] is: 10 mg/mL solution in sesame oil, LC/MS/MS.
Setting [4] is: 10 mg/mL solution in sesame oil, EDTA plasma, LC/MS/MS.

With `CC(C)=CCC/C(C)=C/CC/C(C)=C/CC[C@](C)(O)CCC1=C(C)C(=O)C(C)=C(C)C1=O` [Compound 1-1, 2-[(3S,6E,10E)-3-hydroxy-3,7,11,15-tetramethyl-6,10,14-hexadecatrien-1-yl]-3,5,6-trimethyl-2,5-cyclohexadiene-1,4-dione], in data set [1], the concentration for a half-maximal effect (EC50) is 0.0166 µM, the “BSO assay activity compared with vatiquinone (in words)” value is on record as “at least equivalent to that of vatiquinone; also recorded: as good as vatiquinone” and the “protection against ferroptosis (in words)” value (shortened to “protection”) is “protective against ferroptosis”. For the same molecule, the Brain level in data set [2] (setting [3]) was determined as 8.3 ng/g. In data set [2] (setting [4]), this molecule gave a Cmax of approximately 500 ng/mL.

For `CC(C)=CCC/C(C)=C/CC[C@@](C)(O)CCC1=C(C)C(=O)C(C)=C(C)C1=O` [Compound 2-1, (R,E)-2-(3-hydroxy-3,7,11-trimethyldodeca-6,10-dien-1-yl)-3,5,6-trimethylcyclohexa-2,5-diene-1,4-dione], in data set [1], the EC50 is 0.141 µM, the “BSO assay activity compared with vatiquinone (in words)” value was “not quite as effective as vatiquinone” and the “protection” value is listed as “protective against ferroptosis”. The molecule further came in with a Brain level in data set [2] (setting [3]) of 24.5 ng/g. Moreover, in data set [2], the “drop in plasma concentration relative to the next larger compound pair” value is listed as approximately 5 fold and the “brain level (in words)” value was “comparable to those observed with vatiquinone”. Moreover, the maximum concentration (Cmax) in data set [2] (setting [4]) was approximately 100 ng/mL.

For the molecule `CC(C)=CCC/C(C)=C/CC[C@](C)(O)CCC1=C(C)C(=O)C(C)=C(C)C1=O` [Compound 3-1, (S,E)-2-(3-hydroxy-3,7,11-trimethyldodeca-6,10-dien-1-yl)-3,5,6-trimethylcyclohexa-2,5-diene-1,4-dione], in data set [1], the EC50 was determined as 0.0412 µM, the “BSO assay activity compared with vatiquinone (in words)” value is reported as “as good as vatiquinone” and the “protection” value is listed as “protective against ferroptosis”. Also, the Brain level in data set [2] (setting [3]) worked out at 22.0 ng/g. In data set [2], the “drop in plasma concentration relative to the next larger compound pair” value is recorded as approximately 5 fold and the “brain level (in words)” value is recorded as “comparable to those observed with vatiquinone”. This molecule returned a Cmax in data set [2] (setting [4]) of approximately 100 ng/mL.

On to `CC(C)=CCC[C@@](C)(O)CCC1=C(C)C(=O)C(C)=C(C)C1=O` [Compound 4-1, (R)-2-(3-hydroxy-3,7-dimethyloct-6-en-1-yl)-3,5,6-trimethylcyclohexa-2,5-diene-1,4-dione], for which, in data set [1], the EC50 came out at 0.0905 µM, the “BSO assay activity compared with vatiquinone (in words)” value was “not quite as effective as vatiquinone” and the “protection” value is listed as “protective against ferroptosis”. In data set [2] (setting [3]), the Brain level was found to be 0 ng/g. Further, in data set [2], the “drop in plasma concentration relative to the next larger compound pair” value was approximately 20 fold and the “brain level (in words)” value is “no concentration of these compounds detected”. In addition, the Cmax in data set [2] (setting [4]) is 5.5 ng/mL.

For the molecule `CC(C)=CCC[C@](C)(O)CCC1=C(C)C(=O)C(C)=C(C)C1=O` [Compound 5-1, (S)-2-(3-hydroxy-3,7-dimethyloct-6-en-1-yl)-3,5,6-trimethylcyclohexa-2,5-diene-1,4-dione], in data set [1], the EC50 was 0.039 µM, the “BSO assay activity compared with vatiquinone (in words)” value is “as good as vatiquinone” and the “protection” value is listed as “protective against ferroptosis”. The Brain level in data set [2] (setting [3]) stood at 0 ng/g. For the same molecule, in data set [2], the “drop in plasma concentration relative to the next larger compound pair” value is reported as approximately 20 fold and the “brain level (in words)” value was “no concentration of these compounds detected”. The same molecule came in with a Cmax in data set [2] (setting [4]) of 3.2 ng/mL.

Take `CC(C)=CCC/C(C)=C/CC/C(C)=C/CC[C@@](C)(O)CCC1=C(C)C(=O)C(C)=C(C)C1=O` [vatiquinone, 2-[(3R,6E, 10E)-3-Hydroxy-3,7,11,15-tetramethyl-6,10,14-hexadecatrien-1-yl]-3,5,6-trimethyl-2,5-cyclohexadiene-1,4-dione, reference compound]: in data set [1], the EC50 was determined as 0.0407 µM and the “protection” value was “protective against ferroptosis”. Besides, in data set [2] (setting [4]), the “Plasma Cmax” value was found to be 457 ng/mL and the Cmax is approximately 500 ng/mL. In data set [2] (setting [3]), this molecule came in with a Brain level of 20.8 ng/g.

Broadly, the EC50 is the concentration that produces a half-maximal response. A word on the Cmax: it is the peak of the concentration-time curve.

The record behind these values is US20240293339A1, “COMPOUNDS, COMPOSITIONS AND METHODS FOR THE PREVENTION AND/OR TREATMENT OF VARIOUS MITOCHONDRIAL DISEASES OR DISORDERS, INCLUDING FRIEDREICH'S ATAXIA” (Stealth Bio Therapeutics Inc., priority 2021, published 2024).
